Measured values from patent US7919468B2, “Compounds useful as modulators of the proteasome activity” (Centre National de la Recherche Scientifique (C.N.R.S.), priority 2005, dated 2011).
Peptide text beside a SMILES is read from it. * marks the point of attachment. Boc = CC(C)(C)OC(=O)*; NHBn = c1ccc(CN*)cc1; NHPh = c1ccc(N*)cc1; Bn = c1ccc(C*)cc1

Experiments:
Format in all cases: biochemical
[1] = system: T1, rabbit 20S proteasome, chymotrypsin-like (CT-L) activity; assay: Rabbit 20S proteasome fluorescent assay, chymotrypsin-like activity (Suc-LLVY-amc); conditions: [Compound]=100 μM, pH 7.5, 30° C.
T1 construct: other: [Compound]=100 μM, pH 7.5, 30° C
Description: (§1) 20S proteasome from rabbit reticulocyte was from commercial source (Alexis Biochemicals)
(§2) Semi-automatic fluorescent assays using Suc-LLVY-amc (SEQ ID NO: 2) for chymotrypsin-like activity, Z-LLE-SNA for post-acid activity and Boc-LLR-amc for trypsin-like activity of proteasome were performed at pH 7.5 and 30° C. using BMG Fluostar microplate reader (Suc=succinyl; amc=7-amino-4-methylcoumarin; Z=benzyloxycarbonyl; NA=2-naphtylamine; Boc=tert-butoxycarbonyl). The buffers were: 20 mM Tris, 1 mM DTT, 10% glycerol, 3% (v/v) DMSO (ChT-L and PA activities); 20 mM Tris, 1 mM DTT, 10% glycerol, 3% (v/v) DMSO. Studied compounds were dissolved in DMSO prior dissolution in the buffer. Proteasome was incubated for 15 min at 30° C. in the presence of the studied compound (0.1-100 μM). A control assay in the absence of tested compounds contained DMSO at the same concentration (3%, v/v). The fluorogenic proteasome substrate was then added and the hydrolysis of the appropriate fluorescent substrate was monitored for 1 h (λexc=360, λem=465 nm for amc substrates and λexc=340, λem=405 nm for the βNA substrate). Initial rates determined in control experiments were considered to be 100% of the peptidasic activity; initial rates that were above 100% in the presence of a test compound were considered to be activations, while initial rates below 100% were considered to be inhibitions. For weak inhibitors, the percentage of inhibition at a reference concentration (100 μM) is reported. The results, expressed in % inhibition (or activation factor), were obtained by calculating the average of at least two independent experiments, the variability was less than 10%. The inhibitory activity of more efficient compounds are expressed as IC50 calculated by fitting the experimental data to the equation 1: % Inhibition=100 [I]0/(IC50+[I]0)=100 (v0−vi/v0), or equation 2: % Inhibition=100 [I]0^nH/(IC50^nH+[I]0^nH), nH is the Hill number. v0 and vi are the initial rates in the absence and in the presence of inhibitor. A Dixon plot has been used to determine the inhibition constant Ki for competitive inhibition by compound A215. The reversible character of inhibition or activation was determined by measuring the activity of treated enzyme after the inhibitor molecule has been withdrawn from the reaction medium.
(§3) Inhibition of Rabbit 20 S Proteasome (pH=7.5, 30° C.)
(§4) Activation of Rabbit 20 S Proteasome (pH=7.5, 30° C., [Compound]=100 μM)

[2] = system: rabbit 20S proteasome, trypsin-like (T-L) activity; assay: Rabbit 20S proteasome fluorescent assay, trypsin-like activity (Boc-LLR-amc); conditions: [Compound]=100 μM, pH 7.5, 30° C.
Description: as §1, §2, §3, §4

[3] = biological target: T2, rabbit 20S proteasome, chymotrypsin-like (CT-L) activity (Oryctolagus cuniculus, UniProt G1T4Q9); assay: Rabbit 20S proteasome fluorescent assay, chymotrypsin-like activity (Suc-LLVY-amc); conditions: pH 7.5, 30° C.; for inhibition at 100 µM: 100 μM compound
T2 construct: other: 100 μM compound, pH 7.5, 30° C; other: pH 7.5, 30° C; CT-L Ki
T2 sequence (G1T4Q9 1-263): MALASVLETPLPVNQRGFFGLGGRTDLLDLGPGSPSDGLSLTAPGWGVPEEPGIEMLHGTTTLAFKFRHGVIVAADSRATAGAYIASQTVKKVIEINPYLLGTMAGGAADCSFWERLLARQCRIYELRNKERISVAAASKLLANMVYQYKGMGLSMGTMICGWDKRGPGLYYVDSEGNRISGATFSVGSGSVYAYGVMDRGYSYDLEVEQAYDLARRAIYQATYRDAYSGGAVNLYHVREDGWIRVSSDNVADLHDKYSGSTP
Description: as §1, §2, §3, §4

[4] = biological target: T3, rabbit 20S proteasome, trypsin-like (T-L) activity (Oryctolagus cuniculus, UniProt G1SWK8); assay: Rabbit 20S proteasome fluorescent assay, trypsin-like activity (Boc-LLR-amc); conditions: pH 7.5, 30° C.; for inhibition at 100 µM: 100 μM compound
T3 construct: other: 100 μM compound, pH 7.5, 30° C; other: pH 7.5, 30° C
T3 sequence (G1SWK8 1-271): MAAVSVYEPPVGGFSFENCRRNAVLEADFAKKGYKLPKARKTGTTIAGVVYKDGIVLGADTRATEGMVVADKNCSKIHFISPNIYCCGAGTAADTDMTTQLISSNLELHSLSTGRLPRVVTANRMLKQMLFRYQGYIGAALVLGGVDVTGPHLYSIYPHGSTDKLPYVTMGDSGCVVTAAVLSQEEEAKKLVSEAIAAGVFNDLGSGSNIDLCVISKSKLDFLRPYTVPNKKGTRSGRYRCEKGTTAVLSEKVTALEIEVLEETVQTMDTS
Description: as §1, §2, §3, §4

[5] = system: rabbit 20S proteasome, post-acid (PA) activity; assay: Rabbit 20S proteasome fluorescent assay, post-acid activity (Z-LLE-βNA); conditions: [Compound]=100 μM, pH 7.5, 30° C.
Description: as §1, §2, §3, §4

[6] = biological target: T4, rabbit 20S proteasome, post-acid (PA) activity (Oryctolagus cuniculus, UniProt A0A5F9DQW2); assay: as above; conditions: pH 7.5, 30° C.; for PA % inhibition (at 100 μM): 100 μM compound
T4 construct: other: 100 μM compound, pH 7.5, 30° C; other: pH 7.5, 30° C
T4 sequence (A0A5F9DQW2 1-212): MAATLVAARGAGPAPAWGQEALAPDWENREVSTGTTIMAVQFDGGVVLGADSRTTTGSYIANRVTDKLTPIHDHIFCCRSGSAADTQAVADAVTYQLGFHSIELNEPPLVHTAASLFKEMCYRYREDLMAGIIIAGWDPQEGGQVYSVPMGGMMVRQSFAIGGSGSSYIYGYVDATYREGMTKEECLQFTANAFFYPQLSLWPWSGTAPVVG
Description: as §1, §2, §3, §4

Structure (SMILES)	CT-L Activation factor [1]	T-L Activation factor [2]	also measured
CC(C)(C)OC(=O)N[C@@H](Cc1ccc(OCc2ccccc2)cc1)C(=O)N[C@@H](CCCN(C(=N)NC(=O)OCc1ccccc1)C(=O)OCc1ccccc1)C(=O)N[C@@H](Cc1c[nH]c2ccccc12)C(=O)NCc1ccccc1 [SP315C2, N-Boc-Tyr(Bn)-Arg(Z)-2-Trp-NHCH2Ph]	1.2	1.9	
CC(C)(C)OC(=O)N[C@@H](Cc1ccc(OCc2ccccc2)cc1)C(=O)N[C@@H](CCCN(C(=N)NC(=O)OCc1ccccc1)C(=O)OCc1ccccc1)C(=O)N[C@@H](Cc1c[nH]c2ccccc12)C(=O)Nc1ccccc1 [SP310C, N-Boc-Tyr(Bn)-Arg(Z)-2-Trp-NHPh]	1.7	1.6	
CC(C)(C)OC(=O)NCCCC[C@H](NC(=O)[C@H](Cc1ccc(OCc2ccccc2)cc1)NC(=O)OC(C)(C)C)C(=O)N[C@@H](Cc1c[nH]c2ccccc12)C(=O)Nc1ccc(O)cc1 [SP319P, N-Boc-Tyr(Bn)-Lys(Boc)-Trp-NH(4-OH)Ph]			inhibition at 100 µM [3]: 36%; inhibition at 100 µM [4]: 14%
CC(C)(C)OC(=O)NCCCCNC(=O)[C@H](Cc1c[nH]c2ccccc12)NC(=O)[C@H](CCCN(C(=N)NC(=O)OCc1ccccc1)C(=O)OCc1ccccc1)NC(=O)[C@H](Cc1ccc(OCc2ccccc2)cc1)NC(=O)OC(C)(C)C [SP311C, N-Boc-Tyr(Bn)-Arg(Z)-2-Trp-NH(CH2)4NHBoc]	1.3	1.9	PA Activation factor [5]: 1.2
CC(C)(C)OC(=O)N[C@@H](Cc1ccc(O)cc1)C(=O)N[C@@H](CCCNC(=N)N)C(=O)N[C@@H](Cc1c[nH]c2ccccc12)C(=O)Nc1ccc(O)cc1 [SP324, N-Boc-Tyr-Arg-Trp-NH(4-OH)Ph]			IC50 [3]: 9 µM; IC50 [6]: 3 µM; IC50 [4]: 21 µM
CC(C)(C)OC(=O)N[C@@H](Cc1ccc(O)cc1)C(=O)N[C@@H](CCCNC(=N)N)C(=O)N[C@@H](Cc1c[nH]c2ccccc12)C(=O)NCc1ccccc1 [SP325, N-Boc-Tyr-Arg-Trp-NHCH2Ph] (Boc-Tyr-Arg-Trp-NHBn)			IC50 [3]: 5.4 µM; IC50 [6]: 2.5 µM; IC50 [4]: 19 µM
CC(C)C[C@H](NC(=O)[C@H](Cc1ccc(OCc2ccccc2)cc1)NC(=O)OC(C)(C)C)C(=O)N[C@@H](Cc1c[nH]c2ccccc12)C(=O)Nc1ccccc1 [A424P, N-Boc-Tyr(Bn)-Leu-Trp-NHPh] (Boc-Tyr(Bn)-Leu-Trp-NHPh)	1.2	1.9	
CC(C)(C)OC(=O)N[C@@H](Cc1ccc(OCc2ccccc2)cc1)C(=O)NCC(=O)N[C@@H](Cc1c[nH]c2ccccc12)C(=O)NCc1ccccc1 [PSV11R, N-Boc-Tyr(Bn)-Gly-Trp-NHCH2Ph] (Boc-Tyr(Bn)-Gly-Trp-NHBn)	1.2	1.7	PA % inhibition (at 100 μM) [6]: 59%
CC(C)(C)OC(=O)NCCCC[C@H](NC(=O)[C@H](Cc1ccc(OCc2ccccc2)cc1)NC(=O)OC(C)(C)C)C(=O)N[C@@H](Cc1c[nH]c2ccccc12)C(=O)NCc1ccccc1 [SP307P, N-Boc-Tyr(Bn)-Lys(Boc)-Trp-NHCH2Ph] (Boc-Tyr(Bn)-Lys(Boc)-Trp-NHBn)	1.3	1.8	
CC(C)C[C@H](NC(=O)[C@H](Cc1ccc(OCc2ccccc2)cc1)NC(=O)OC(C)(C)C)C(=O)N[C@@H](Cc1c[nH]c2ccccc12)C(=O)NCc1ccccc1 [A414P, N-Boc-Tyr(Bn)-Leu-Trp-NHCH2Ph] (Boc-Tyr(Bn)-Leu-Trp-NHBn)	1.3	1.9	
CNC(=O)[C@H](Cc1c[nH]c2c(-c3cc(C[C@H](NC(=O)OC(C)(C)C)C(=O)N[C@@H](CC(C)C)C(=O)OC)ccc3OCc3ccccc3)cccc12)NC(=O)OCc1ccccc1 [SP226F1]			inhibition at 100 µM [4]: 23%
CNC(=O)[C@H](Cc1c[nH]c2c(-c3cc(C[C@H](NC(=O)OC(C)(C)C)C(=O)N[C@@H](C)C(=O)OC)ccc3OCc3ccccc3)cccc12)NC(=O)OCc1ccccc1 [SP225F2]			PA % inhibition (at 100 μM) [6]: 25%; inhibition at 100 µM [4]: 49%
CC(C)(C)OC(=O)NCCCC[C@H](NC(=O)[C@H](Cc1ccc(OCc2ccccc2)cc1)NC(=O)OC(C)(C)C)C(=O)N[C@@H](Cc1c[nH]c2ccccc12)C(=O)Nc1ccccc1 [SP306P, N-Boc-Tyr(Bn)-Lys(Boc)-Trp-NHPh] (Boc-Tyr(Bn)-Lys(Boc)-Trp-NHPh)	1.2	1.6	
COC(=O)[C@H](Cc1c[nH]c2ccccc12)NC(=O)[C@H](C)NC(=O)[C@H](Cc1ccc(O)cc1)NC(=O)OC(C)(C)C [NR40, N-Boc-Tyr-Ala-Trp-OCH3] (Boc-Tyr-Ala-Trp-OMe)		6	IC50 [3]: 40 µM; IC50 [6]: 35 µM
CC(C)(C)OC(=O)N[C@@H](Cc1ccc(OCc2ccccc2)cc1)C(=O)N[C@@H](CC(N)=O)C(=O)N[C@@H](Cc1c[nH]c2ccccc12)C(=O)Nc1ccccc1 [SP314C2, N-Boc-Tyr(Bn)-Asn-Trp-NHPh] (Boc-Tyr(Bn)-Asn-Trp-NHPh)	1.5	2.5	
CC(C)(C)OC(=O)NCCCCNC(=O)[C@H](Cc1c[nH]c2ccccc12)NC(=O)[C@H](CCCCNC(=O)OC(C)(C)C)NC(=O)[C@H](Cc1ccc(OCc2ccccc2)cc1)NC(=O)OC(C)(C)C [SP308P, N-Boc-Tyr(Bn)-Lys(Boc)-Trp-NH(CH2)4NHBoc]	1.6	1.9	
CC(C)C[C@H](NC(=O)[C@H](Cc1ccc(OCc2ccccc2)cc1)NC(=O)OC(C)(C)C)C(=O)N[C@@H](CC1C(=O)Nc2ccccc21)C(=O)Nc1ccccc1 (stereo partly drawn) [JV602, Boc-Tyr(Bn)-Leu-Trp[O]—NHPh]		1.3	inhibition at 100 µM [3]: 22%; PA % inhibition (at 100 μM) [6]: 26%
C[C@H](NC(=O)[C@H](Cc1ccc(OCc2ccccc2)cc1)NC(=O)OC(C)(C)C)C(=O)N[C@@H](Cc1c[nH]c2ccccc12)C(=O)Nc1ccccc1 [SP303r2, N-Boc-Tyr(Bn)-Ala-Trp-NHPh] (Boc-Tyr(Bn)-Ala-Trp-NHPh)	1.4	1.6	
C[C@H](NC(=O)[C@H](Cc1ccc(OCc2ccccc2)c(I)c1)NC(=O)OC(C)(C)C)C(=O)N[C@@H](Cc1c[nH]c2c(Br)cccc12)C(=O)O [A215, N-Boc-3-iodo-Tyr(Bn)-Ala-7-bromo-Trp-OH]			Ki ([3]; Dixon plot, competitive inhibition): 2 µM; IC50 [3]: 6.8 µM; IC50 [6]: 11.3 µM; IC50 [4]: 14.4 µM
